According to patent US4563306A, “Peptides and process for preparing the same” (Tanabe Seiyaku Co., Ltd., priority 1983, dated 1986):

Key:
Assay type in all cases: in vivo
Serum TSH levels = test: TSH-releasing activity (serum TSH by double-antibody radioimmunoassay after i.v. administration); settings: male JCL: SD rats, intravenous, serum TSH 15 minutes after administration; parallel line assay, TRH = 1
Description: (1) TSH-releasing activity:
A test compound dissolved in a 0.1% BSA (bovine serum albumin)-containing physiological saline was intravenously administered to a group of five male JCL: SD rats. Fifteen minutes after the administration, blood was taken from the abdominal aorta under anesthesia. Serum TSH levels were determined by the double-antibody radioimmunoassay method (Midgley et al., Endocrinology., 79, 10 (1966)). The BSA-containing physiological saline was used for control instead of the test compound solution.

male STD/ddy mice [1] = test: Antagonistic effect on pentobarbital anesthesia; settings: pentobarbital sodium 55 mg/kg i.p., test compound intravenous 10 minutes later, duration of anesthesia, parallel line assay, TRH = 1
Description: (2) Antagonistic effect on pentobarbital anesthesia:
Pentobarbital sodium was intraperitoneally administered to a group of ten male STD/ddy mice at a dose of 55 mg/kg. Ten minutes after the administration of pentobarbital sodium, a test compound dissolved in physiological saline was intravenously administered to the mice which had lost the righting reflex. The duration of anesthesia was measured as the time from the end of administration of the test compound until the righting reflex regained. Physiological saline was used for control instead of the test compound solution (Prange et al., Life Science, 14, 447-455, (1974)).

male STD/ddy mice [2] = test: Increasing effect on spontaneous locomotor activity (Ambulometer); settings: intraperitoneal, activity measured for 60 minutes, parallel line assay, TRH = 1
Description: (3) Increasing effect on spontaneous locomotor activity:
A group of five male STD/ddY mice were individually placed in Ambulometer (i.e., an apparatus for measuring spontaneous locomotor activity; manufactured by OHARA IKA Co.) for 30 minutes to acclimatize to the apparatus. Thereafter, a test compound dissolved in physiological saline was intraperitoneally administered to the mice and, immediately after administration of the test compound, the spontaneous locomotor activity was measured for 60 minutes. Physiological saline was used for control instead of the test compound solution.

male STD/ddy mice [3] = test: Antagonistic effect on reserpine-induced hypothermia; settings: intraperitoneal, rectal temperature 30, 60, 120 and 180 minutes after administration, parallel line assay, TRH = 1
Description: (4) Antagonistic effect on reserpine-induced hypothermia:
A test compound dissolved in physiological saline was intraperitoneally administered to a group of five male STD/ddy mice, and the rectal temperature was measured 30, 60, 120 and 180 minutes after the administration of the test compound. The increase in temperature in the treated group was compared to that in the control group which received physiological saline instead of the test compound solution.

male STD/ddy mice [4] = test: Potentiating effect on methamphetamine-induced hyperlocomotion; settings: methamphetamine 0.2 mg/kg and test compound intraperitoneally at the same time, locomotor activity for 60 minutes, parallel line assay, TRH = 1
Description: (5) Potentiating effect on methamphetamine-induced hyperlocomotion:
A group of ten male STD/ddY mice were individually placed in Ambulometer for 30 minutes to acclimatize to the apparatus.

## NC(=O)[C@@H]1CCCN1C(=O)[C@H](Cc1c[nH]cn1)NC(=O)[C@@H]1Cc2ccccc2C(=O)N1 [N^α -[(3 S)-1-oxo-1,2,3,4-tetrahydroisoquinoline-3-carbonyl]-L-histidyl-L-prolinamide]
Serum TSH levels
  TSH-releasing activity, potency ratio relative to TRH: 1
Male STD/ddy mice [1]
  Antagonistic effect on pentobarbital anesthesia, potency ratio relative to TRH: 10
Male STD/ddy mice [2]
  Increasing effect on spontaneous locomotor activity, potency ratio relative to TRH: 10
Male STD/ddy mice [3]
  Antagonistic effect on reserpine-induced hypothermia, potency ratio relative to TRH: 10
Male STD/ddy mice [4]
  Potentiating effect on action of methamphetamine, potency ratio relative to TRH: 10

## NC(=O)[C@@H]1CCCN1C(=O)[C@H](Cc1c[nH]cn1)NC(=O)[C@@H]1CCC(=O)N1 [TRH, L-pyroglutamyl-L-histidyl-L-prolinamide]
Serum TSH levels
  TSH-releasing activity, potency ratio relative to TRH: 1
Male STD/ddy mice [1]
  Antagonistic effect on pentobarbital anesthesia, potency ratio relative to TRH: 1
Male STD/ddy mice [2]
  Increasing effect on spontaneous locomotor activity, potency ratio relative to TRH: 1
Male STD/ddy mice [3]
  Antagonistic effect on reserpine-induced hypothermia, potency ratio relative to TRH: 1
Male STD/ddy mice [4]
  Potentiating effect on action of methamphetamine, potency ratio relative to TRH: 1
